Laboratory results published in ChEMBL document CHEMBL5715954, “Silencing c-Myc translation as a therapeutic strategy through targeting PI3Kδ and CK1ε in hematological malignancies” (Blood, 2017).
The source made the active and inactive calls. The rule behind the calls is not given here.

Legend:
[1] = biological target: Fibroblast growth factor receptor 4 (Homo sapiens) (UniProt P22455); experiment: Inhibition of human FGFR4 assessed as enzyme activity at 1 uM using poly[Glu:Tyr] (4:1) as substrate preincubated for 20 mins followed by [gamma-33P]-ATP addition and measured after 120 mins by radiometric Hot-SpotSM Kinase assay relative to control; set-up: scale not given: the % may be the effect or the level left
Chain of Fibroblast growth factor receptor 4 (Homo sapiens) (P22455 22-802 limits assumed): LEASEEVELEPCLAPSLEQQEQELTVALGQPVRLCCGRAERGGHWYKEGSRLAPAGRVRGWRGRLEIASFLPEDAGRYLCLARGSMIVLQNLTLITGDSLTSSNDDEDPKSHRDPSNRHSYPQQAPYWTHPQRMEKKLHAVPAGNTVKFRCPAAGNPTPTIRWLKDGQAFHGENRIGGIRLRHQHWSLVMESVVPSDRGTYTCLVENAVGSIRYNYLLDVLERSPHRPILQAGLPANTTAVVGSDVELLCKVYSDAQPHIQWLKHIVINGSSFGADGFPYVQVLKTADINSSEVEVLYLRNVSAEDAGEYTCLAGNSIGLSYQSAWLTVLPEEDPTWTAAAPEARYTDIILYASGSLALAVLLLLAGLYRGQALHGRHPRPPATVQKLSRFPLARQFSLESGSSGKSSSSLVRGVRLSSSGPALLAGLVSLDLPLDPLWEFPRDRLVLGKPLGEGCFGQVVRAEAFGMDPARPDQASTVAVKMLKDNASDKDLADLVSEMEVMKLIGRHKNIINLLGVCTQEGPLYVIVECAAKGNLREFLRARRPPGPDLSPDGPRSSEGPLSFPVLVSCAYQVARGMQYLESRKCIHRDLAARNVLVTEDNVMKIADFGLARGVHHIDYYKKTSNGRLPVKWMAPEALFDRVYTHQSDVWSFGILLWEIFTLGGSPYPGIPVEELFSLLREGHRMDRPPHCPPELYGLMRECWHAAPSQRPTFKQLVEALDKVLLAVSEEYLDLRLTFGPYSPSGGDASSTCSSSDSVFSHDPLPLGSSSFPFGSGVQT

[2] = biological target: Myosin light chain kinase, smooth muscle (Homo sapiens) (UniProt Q15746); experiment: Inhibition of human MLCK assessed as enzyme activity at 1 uM using KKLNRTLSFAEPG as substrate preincubated for 20 mins followed by [gamma-33P]-ATP addition and measured after 120 mins by radiometric Hot-SpotSM Kinase assay relative to control; set-up: scale not given: the % may be the effect or the level left
mTORC1 (Homo sapiens) [3] = biological target: T1, mTORC1 (Homo sapiens) (UniProt P42345+Q8N122+Q9BVC4); experiment: Inhibition of mTORC1 in human LY10 cells assessed as reduction in c-Myc expression at 3 uM measured after 24 hrs in presence of carfilzomib by Western blot analysis; format: cell-based
T1 sequence (Q8N122 whole entry, looked up, other chains not shown): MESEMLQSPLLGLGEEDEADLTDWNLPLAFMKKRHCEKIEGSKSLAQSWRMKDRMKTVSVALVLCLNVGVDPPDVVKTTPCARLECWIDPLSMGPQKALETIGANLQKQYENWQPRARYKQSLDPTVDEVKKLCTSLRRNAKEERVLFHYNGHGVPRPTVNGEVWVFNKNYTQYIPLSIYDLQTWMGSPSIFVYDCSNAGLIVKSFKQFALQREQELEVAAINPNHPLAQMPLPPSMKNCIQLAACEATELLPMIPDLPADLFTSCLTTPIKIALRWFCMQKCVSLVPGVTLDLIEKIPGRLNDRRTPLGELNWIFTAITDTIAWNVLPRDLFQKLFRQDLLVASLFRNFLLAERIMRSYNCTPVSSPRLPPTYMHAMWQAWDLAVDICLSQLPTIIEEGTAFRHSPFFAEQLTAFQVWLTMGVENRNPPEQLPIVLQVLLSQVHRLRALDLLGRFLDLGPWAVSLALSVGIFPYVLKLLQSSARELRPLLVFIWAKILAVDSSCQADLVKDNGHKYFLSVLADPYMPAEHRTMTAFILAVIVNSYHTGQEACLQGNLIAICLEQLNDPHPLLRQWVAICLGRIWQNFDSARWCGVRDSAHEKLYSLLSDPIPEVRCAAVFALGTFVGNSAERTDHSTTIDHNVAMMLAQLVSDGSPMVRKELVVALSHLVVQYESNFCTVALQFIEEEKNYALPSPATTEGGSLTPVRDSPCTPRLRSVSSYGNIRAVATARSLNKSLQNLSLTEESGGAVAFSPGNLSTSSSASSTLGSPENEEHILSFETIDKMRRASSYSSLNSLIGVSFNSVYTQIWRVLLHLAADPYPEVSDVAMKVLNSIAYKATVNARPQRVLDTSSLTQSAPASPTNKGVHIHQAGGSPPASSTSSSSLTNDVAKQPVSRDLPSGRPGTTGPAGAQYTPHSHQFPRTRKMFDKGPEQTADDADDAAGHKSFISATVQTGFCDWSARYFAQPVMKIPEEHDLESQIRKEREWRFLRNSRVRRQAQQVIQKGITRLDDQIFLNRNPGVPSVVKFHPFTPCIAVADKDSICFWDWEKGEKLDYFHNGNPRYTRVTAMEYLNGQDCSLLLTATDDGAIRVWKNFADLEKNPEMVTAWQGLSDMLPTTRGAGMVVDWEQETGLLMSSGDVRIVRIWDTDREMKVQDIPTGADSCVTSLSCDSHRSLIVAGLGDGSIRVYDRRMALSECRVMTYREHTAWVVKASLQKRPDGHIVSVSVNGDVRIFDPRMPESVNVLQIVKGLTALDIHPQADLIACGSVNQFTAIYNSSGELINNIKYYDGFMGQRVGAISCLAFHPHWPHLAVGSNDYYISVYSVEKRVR
T1 sequence (Q9BVC4 whole entry, looked up, other chains not shown): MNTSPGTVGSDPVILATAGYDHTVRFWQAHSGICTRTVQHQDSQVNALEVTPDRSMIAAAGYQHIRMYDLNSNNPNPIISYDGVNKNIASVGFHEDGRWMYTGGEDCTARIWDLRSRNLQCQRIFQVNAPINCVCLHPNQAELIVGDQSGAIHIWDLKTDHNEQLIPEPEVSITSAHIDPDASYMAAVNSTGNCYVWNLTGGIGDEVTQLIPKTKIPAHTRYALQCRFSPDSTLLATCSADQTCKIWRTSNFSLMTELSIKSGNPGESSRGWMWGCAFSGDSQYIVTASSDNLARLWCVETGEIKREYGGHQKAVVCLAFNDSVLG

MZL = experiment: Induction of apoptosis in human MZL cells assessed as increase in cleaved-PARP expression at 5 uM measured after 24 hrs in presence of carfilzomib by Western blot analysis; format: functional, cell-based
mTORC1 (Homo sapiens) [4] = biological target: T1, mTORC1 (Homo sapiens); experiment: Inhibition of mTORC1 in human PF-382 cells assessed as reduction in 4E-BP1 phosphorylation at 5 uM measured after 24 hrs by Western blot analysis; format: cell-based
Z-138 = experiment: Cytotoxicity against human Z138 cells assessed as reduction in cell viability measured after 48 hrs by cell titer-glo assay; format: functional, cell-based
LY7 [5] = experiment: Cytotoxicity against human LY7 cells assessed as reduction in cell viability measured after 24 hrs by cell titer-glo assay; format: functional, cell-based
H9 = experiment: Cytotoxicity against human H9 cells assessed as reduction in cell viability measured after 48 hrs by cell titer-glo assay; format: functional, cell-based
mTORC1 (Homo sapiens) [6] = biological target: T1, mTORC1 (Homo sapiens); experiment: Inhibition of mTORC1 in human PF-382 cells assessed as reduction in c-Myc expression at 5 uM measured after 24 hrs by Western blot analysis; format: cell-based
[7] = biological target: Myc proto-oncogene protein (Homo sapiens) (UniProt P01106); experiment: Inhibition of c-Myc in human LY10 cells assessed as reduction in E2F1 expression at 3 uM incubated for 24 hrs by Western blot analysis; format: cell-based
Chain of Myc proto-oncogene protein (Homo sapiens) (P01106 whole entry): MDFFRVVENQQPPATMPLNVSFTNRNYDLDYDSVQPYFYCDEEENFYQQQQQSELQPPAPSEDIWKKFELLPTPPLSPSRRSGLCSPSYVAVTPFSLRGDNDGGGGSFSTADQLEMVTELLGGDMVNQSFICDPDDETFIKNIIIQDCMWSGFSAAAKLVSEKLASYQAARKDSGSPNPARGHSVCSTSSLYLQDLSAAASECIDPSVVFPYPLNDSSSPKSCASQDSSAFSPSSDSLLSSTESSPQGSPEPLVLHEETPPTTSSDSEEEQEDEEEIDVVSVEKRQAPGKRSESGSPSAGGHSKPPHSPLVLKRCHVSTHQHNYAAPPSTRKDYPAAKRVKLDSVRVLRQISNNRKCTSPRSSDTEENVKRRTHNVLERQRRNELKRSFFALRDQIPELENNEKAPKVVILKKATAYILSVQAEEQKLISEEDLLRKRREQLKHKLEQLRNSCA

[8] = biological target: Myc proto-oncogene protein (Homo sapiens) (UniProt P01106); experiment: Inhibition of c-Myc in human LY7 cells assessed as reduction in eIF4B expression at 3 uM incubated for 24 hrs by Western blot analysis; format: cell-based
mTORC1 (Homo sapiens) [9] = biological target: T1, mTORC1 (Homo sapiens); experiment: Inhibition of mTORC1 in human SLL cells assessed as reduction in c-Myc expression at 5 uM measured after 24 hrs by Western blot analysis; format: cell-based
mTORC1 (Homo sapiens) [10] = biological target: T1, mTORC1 (Homo sapiens); experiment: Inhibition of mTORC1 in human LY10 cells assessed as reduction in c-Myc mRNA expression at 3 uM measured after 24 hrs in presence of bortezomib; format: cell-based
JeKo-1 = experiment: Cytotoxicity against human JeKo-1 cells assessed as reduction in cell viability measured after 24 hrs by cell titer-glo assay; format: functional, cell-based
mTORC1 (Homo sapiens) [11] = biological target: T1, mTORC1 (Homo sapiens); experiment: Inhibition of mTORC1 in human LY10 cells assessed as reduction in c-Myc mRNA expression at 3 uM measured after 24 hrs in presence of carfilzomib; format: cell-based
mTORC1 (Homo sapiens) [12] = biological target: T1, mTORC1 (Homo sapiens); experiment: Inhibition of mTORC1 in human LY10 cells assessed as reduction in 4E-BP1 phosphorylation at 3 uM measured after 24 hrs by Western blot analysis; format: cell-based
[13] = biological target: RAC-gamma serine/threonine-protein kinase (Homo sapiens) (UniProt Q9Y243); experiment: Inhibition of human AKT3 assessed as enzyme activity at 1 uM using KGSGSGRPRTSSFAEG as substrate preincubated for 20 mins followed by [gamma-33P]-ATP addition and measured after 120 mins by radiometric Hot-SpotSM Kinase assay relative to control; set-up: scale not given: the % may be the effect or the level left
Chain of RAC-gamma serine/threonine-protein kinase (Homo sapiens) (Q9Y243 whole entry): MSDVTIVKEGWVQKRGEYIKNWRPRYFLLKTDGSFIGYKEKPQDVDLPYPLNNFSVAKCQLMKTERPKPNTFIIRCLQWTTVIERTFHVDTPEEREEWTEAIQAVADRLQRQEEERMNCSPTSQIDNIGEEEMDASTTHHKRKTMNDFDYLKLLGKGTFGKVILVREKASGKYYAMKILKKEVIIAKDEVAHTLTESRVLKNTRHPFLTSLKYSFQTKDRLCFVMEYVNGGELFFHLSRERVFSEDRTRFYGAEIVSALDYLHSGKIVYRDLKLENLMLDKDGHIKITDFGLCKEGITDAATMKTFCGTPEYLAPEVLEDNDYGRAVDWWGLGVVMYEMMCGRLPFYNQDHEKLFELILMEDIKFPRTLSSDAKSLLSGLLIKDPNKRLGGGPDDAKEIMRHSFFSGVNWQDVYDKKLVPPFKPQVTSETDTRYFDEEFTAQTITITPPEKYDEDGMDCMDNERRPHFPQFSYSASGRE

mTORC1 (Homo sapiens) [14] = biological target: T1, mTORC1 (Homo sapiens); experiment: Inhibition of mTORC1 in human LY7 cells assessed as reduction in 4E-BP1 phosphorylation at 3 uM measured after 24 hrs by Western blot analysis; format: cell-based
mTORC1 (Homo sapiens) [15] = biological target: T1, mTORC1 (Homo sapiens); experiment: Inhibition of mTORC1 in human LY10 cells assessed as reduction in c-Myc expression at 3 uM measured after 24 hrs in presence of bortezomib by Western blot analysis; format: cell-based
CLL cell = experiment: Induction of apoptosis in human CLL cells assessed as increase in cleaved-PARP expression at 5 uM measured after 24 hrs in presence of carfilzomib by Western blot analysis; format: functional, cell-based
PF-382 = experiment: Induction of apoptosis in human PF-382 cells assessed as increase in cleaved-PARP expression at 5 uM measured after 24 hrs in presence of carfilzomib by Western blot analysis; format: functional, cell-based
OCI-Ly10 [16] = experiment: Induction of apoptosis in human LY10 cells assessed as increase in cleaved-PARP expression at 3 uM measured after 24 hrs in presence of carfilzomib by Western blot analysis; format: functional, cell-based
OCI-Ly10 [17] = experiment: Cytotoxicity against human LY10 cells assessed as reduction in cell viability measured after 24 hrs by cell titer-glo assay; format: functional, cell-based
[18] = biological target: Protein-tyrosine kinase 6 (Homo sapiens) (UniProt Q13882); experiment: Inhibition of human BRK assessed as enzyme activity at 1 uM using poly[Glu:Tyr] (4:1) as substrate preincubated for 20 mins followed by [gamma-33P]-ATP addition and measured after 120 mins by radiometric Hot-SpotSM Kinase assay relative to control; set-up: scale not given: the % may be the effect or the level left
Chain of Protein-tyrosine kinase 6 (Homo sapiens) (Q13882 whole entry, looked up): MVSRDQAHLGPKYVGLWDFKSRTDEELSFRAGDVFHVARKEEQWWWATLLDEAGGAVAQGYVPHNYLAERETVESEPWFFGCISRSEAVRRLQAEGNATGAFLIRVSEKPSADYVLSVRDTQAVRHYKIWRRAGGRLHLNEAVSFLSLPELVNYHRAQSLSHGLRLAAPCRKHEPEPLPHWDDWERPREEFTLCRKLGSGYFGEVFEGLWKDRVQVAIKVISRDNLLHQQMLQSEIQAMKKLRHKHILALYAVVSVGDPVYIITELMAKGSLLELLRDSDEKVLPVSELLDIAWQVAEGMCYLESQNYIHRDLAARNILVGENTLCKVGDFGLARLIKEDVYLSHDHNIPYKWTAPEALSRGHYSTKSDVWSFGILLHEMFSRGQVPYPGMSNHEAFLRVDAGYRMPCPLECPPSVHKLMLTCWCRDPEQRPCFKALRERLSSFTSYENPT

mTORC1 (Homo sapiens) [19] = biological target: T1, mTORC1 (Homo sapiens); experiment: Inhibition of mTORC1 in human LY7 cells assessed as reduction in c-Myc expression at 3 uM measured after 24 hrs by Western blot analysis; format: cell-based
Rec1 = experiment: Cytotoxicity against human REC1 cells assessed as reduction in cell viability measured after 24 hrs by cell titer-glo assay; format: functional, cell-based
[20] = biological target: Myc proto-oncogene protein (Homo sapiens) (UniProt P01106); experiment: Inhibition of c-Myc in human LY7 cells assessed as reduction in E2F1 expression at 3 uM incubated for 24 hrs by Western blot analysis; format: cell-based
mTORC1 (Homo sapiens) [21] = biological target: T1, mTORC1 (Homo sapiens); experiment: Inhibition of mTORC1 in human CLL cells assessed as reduction in 4E-BP1 phosphorylation at 5 uM measured after 24 hrs by Western blot analysis; format: cell-based; conditions: CLL cell
[22] = biological target: Tau-tubulin kinase 2 (Homo sapiens) (UniProt Q6IQ55); experiment: Inhibition of human TTBK2 assessed as enzyme activity at 1 uM using myelin basic protein as substrate preincubated for 20 mins followed by [gamma-33P]-ATP addition and measured after 120 mins by radiometric Hot-SpotSM Kinase assay relative to control; set-up: scale not given: the % may be the effect or the level left
Chain of Tau-tubulin kinase 2 (Homo sapiens) (Q6IQ55 whole entry): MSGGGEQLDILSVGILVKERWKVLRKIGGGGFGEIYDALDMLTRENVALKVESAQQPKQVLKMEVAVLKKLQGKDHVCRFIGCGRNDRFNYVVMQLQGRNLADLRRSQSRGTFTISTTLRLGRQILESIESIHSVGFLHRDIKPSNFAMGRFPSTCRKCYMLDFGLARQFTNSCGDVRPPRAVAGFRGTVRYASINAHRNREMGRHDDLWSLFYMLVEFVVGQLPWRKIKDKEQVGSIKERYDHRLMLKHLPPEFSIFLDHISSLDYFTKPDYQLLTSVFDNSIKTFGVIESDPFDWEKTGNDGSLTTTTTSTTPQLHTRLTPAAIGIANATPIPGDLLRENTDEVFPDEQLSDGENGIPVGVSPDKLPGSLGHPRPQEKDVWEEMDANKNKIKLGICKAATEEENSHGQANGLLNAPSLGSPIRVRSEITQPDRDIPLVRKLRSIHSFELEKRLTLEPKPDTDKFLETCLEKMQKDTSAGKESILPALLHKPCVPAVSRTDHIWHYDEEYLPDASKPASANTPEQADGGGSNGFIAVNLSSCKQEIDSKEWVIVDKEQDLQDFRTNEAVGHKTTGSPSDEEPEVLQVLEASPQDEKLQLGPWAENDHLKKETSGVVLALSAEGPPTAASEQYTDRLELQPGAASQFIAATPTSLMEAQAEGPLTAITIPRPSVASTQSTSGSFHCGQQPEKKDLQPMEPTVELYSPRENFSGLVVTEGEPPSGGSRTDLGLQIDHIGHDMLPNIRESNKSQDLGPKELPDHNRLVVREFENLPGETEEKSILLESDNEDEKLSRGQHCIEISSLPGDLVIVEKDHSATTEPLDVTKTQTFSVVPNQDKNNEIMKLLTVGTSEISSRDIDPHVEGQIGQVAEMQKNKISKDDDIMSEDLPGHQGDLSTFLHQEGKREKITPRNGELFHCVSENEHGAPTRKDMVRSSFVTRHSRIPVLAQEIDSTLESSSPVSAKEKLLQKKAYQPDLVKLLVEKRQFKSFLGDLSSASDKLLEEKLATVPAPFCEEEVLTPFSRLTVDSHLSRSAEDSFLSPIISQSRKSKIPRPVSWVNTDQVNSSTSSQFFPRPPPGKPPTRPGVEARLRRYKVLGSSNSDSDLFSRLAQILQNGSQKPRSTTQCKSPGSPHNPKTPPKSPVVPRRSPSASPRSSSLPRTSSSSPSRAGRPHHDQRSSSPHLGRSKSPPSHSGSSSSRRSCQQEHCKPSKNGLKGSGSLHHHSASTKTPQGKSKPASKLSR

OCI-Ly10 [23] = experiment: Induction of apoptosis in human LY10 cells assessed as increase in caspase-3/7 activation at 1 to 3 uM measured after 24 hrs in presence of carfilzomib; format: functional, cell-based; conditions: dose 1-3 µM
[24] = biological target: Myc proto-oncogene protein (Homo sapiens) (UniProt P01106); experiment: Inhibition of c-Myc in human LY10 cells assessed as reduction in eIF4B expression at 3 uM incubated for 24 hrs by Western blot analysis; format: cell-based
mTORC1 (Homo sapiens) [25] = biological target: T1, mTORC1 (Homo sapiens); experiment: Inhibition of mTORC1 in human LY10 cells assessed as reduction in c-Myc expression at 3 uM measured after 24 hrs by Western blot analysis; format: cell-based
SLL = experiment: Induction of apoptosis in human SLL cells assessed as increase in cleaved-PARP expression at 5 uM measured after 24 hrs in presence of carfilzomib by Western blot analysis; format: functional, cell-based
LY7 [26] = experiment: Induction of apoptosis in human LY7 cells assessed as increase in cleaved-PARP expression at 3 uM measured after 24 hrs in presence of carfilzomib by Western blot analysis; format: functional, cell-based

SMILES | Activity [1] | Activity [2] | inhibition (mTORC1 (Homo sapiens) [3]) | Activity (MZL) | inhibition (mTORC1 (Homo sapiens) [4]) | Activity (Z-138) | Activity (LY7 [5]) | Activity (H9) | inhibition (mTORC1 (Homo sapiens) [6]) | inhibition [7] | inhibition [8] | inhibition (mTORC1 (Homo sapiens) [9]) | inhibition (mTORC1 (Homo sapiens) [10]) | Activity (JeKo-1) | inhibition (mTORC1 (Homo sapiens) [11]) | inhibition (mTORC1 (Homo sapiens) [12]) | Activity [13] | inhibition (mTORC1 (Homo sapiens) [14]) | Activity [18] | Activity [22] | further results
CC[C@H](Nc1ncnc2[nH]cnc12)c1nc2cccc(F)c2c(=O)n1-c1ccccc1 | 97.3% | 96.1% | Active | Active | inactive | Active | Active | Active | inactive | inactive | inactive | inactive | inactive | Active | inactive | inactive | 102% | inactive | 97.6% | 90.6% | inhibition (mTORC1 (Homo sapiens) [15]): inactive; Activity (CLL cell): Active; Activity (PF-382): Active; Activity (OCI-Ly10 [16]): Active; Activity (OCI-Ly10 [17]): Active; inhibition (mTORC1 (Homo sapiens) [19]): inactive; Activity (Rec1): Active; inhibition [20]: inactive; inhibition (mTORC1 (Homo sapiens) [21]): inactive; Activity (OCI-Ly10 [23]): Active; inhibition [24]: inactive; inhibition (mTORC1 (Homo sapiens) [25]): inactive; Activity (SLL): Active; Activity (LY7 [26]): Active
C[C@H](Nc1ncnc2nc[nH]c12)c1cc2cccc(Cl)c2c(=O)n1-c1ccccc1 | 94.5% | 91.7% | – | – | – | – | – | – | – | – | – | – | – | – | – | – | 99.8% | – | 98.3% | 95.8% | –
CC(C)Oc1ccc(-c2nn([C@@H](C)c3oc4ccc(F)cc4c(=O)c3-c3cccc(F)c3)c3ncnc(N)c23)cc1F [UMBRALISIB] | 93.2% | 92.4% | Active | Active | inactive | Active | Active | Active | inactive | inactive | inactive | inactive | inactive | Active | inactive | inactive | 100% | inactive | 97.9% | 96.7% | inhibition (mTORC1 (Homo sapiens) [15]): Active; Activity (CLL cell): Active; Activity (PF-382): Active; Activity (OCI-Ly10 [16]): Active; Activity (OCI-Ly10 [17]): Active; inhibition (mTORC1 (Homo sapiens) [19]): inactive; Activity (Rec1): Active; inhibition [20]: inactive; inhibition (mTORC1 (Homo sapiens) [21]): inactive; Activity (OCI-Ly10 [23]): Active; inhibition [24]: inactive; inhibition (mTORC1 (Homo sapiens) [25]): inactive; Activity (SLL): Active; Activity (LY7 [26]): Active
